Measured values: patent US20020051978A1, “Methods and compositions for the identification, assessment, prevention and therapy of human cancers” (priority 2000, published 2002)
Values joined by “and” are separate entries in the source; they are usually repeats but may differ in a detail not shown here. Identical values can stand only once. Like-named read-outs stand apart in the source and are kept apart here.

Key:
[1] = tested on: 60 cancer cell lines (NCI 60 cancer cell line series); assay: NCI-DTP in vitro cancer screen, sulforhodamine B (SRB) growth inhibition, 48 hour exposure; format: cell-based, human
Procedure, shortened: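 Sixty NCI-DTP cancer lines plated at line-specific densities, dosed on day 1 in duplicate with 5 concentrations at ten-fold intervals. After 48 h exposure, cell mass read by SRB staining; GI50 (50% growth inhibition) taken from dose-response curves and expressed as -log GI50.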

[2] = tested on: 60 cancer cell lines (NCI 60 cancer cell line series); settings: cited from earlier work

## OC[C@H]1O[C@@H](n2cnc3c2N=CNC[C@H]3O)C[C@@H]1O [2′-deoxycoformycin]
[1]
  1 # of Low: 9
  2 # of Medium: 43
  3 # of High: 8
  classification of cell line as Low(1), Medium(2) or High(3) sensitivity to compound: 2 and 1 and 3
  sensitivity class Prostate PC-3(I) CL11001: 1
  sensitivity class Renal 786-O CL9018: 2
  sensitivity class Renal A498 CL9013: 2
  sensitivity class Renal ACHN CL9023: 2
  sensitivity class Renal CAKI-1 CL9015: 3
  sensitivity class Renal RXF-393 CL9016: 3
  sensitivity class Renal SN12C CL9008: 2
  sensitivity class Renal TK10 CL9024: 1
  sensitivity class Renal UO-31 CL9004: 2
  sensitivity class of the cell line to the compound (1 Low, 2 Medium, 3 High): 3 and 2
[1]; Colon SW-620 (CL4009)
  classification of cell line as Low(1), Medium(2) or High(3) sensitivity to compound: 2
[1]; Leukemia CCRF-CEM(I) (CL7003)
  classification of cell line as Low(1), Medium(2) or High(3) sensitivity to compound: 2
[1]; Leukemia HL-60(I) (CL7008)
  classification of cell line as Low(1), Medium(2) or High(3) sensitivity to compound: 2
[1]; Leukemia K562(I) CL7005
  classification of cell line as Low(1), Medium(2) or High(3) sensitivity to compound: 2
[1]; Leukemia MOLT-4 (CL7006)
  classification of cell line as Low(1), Medium(2) or High(3) sensitivity to compound: 2
[1]; Leukemia RPMI-8226(I) (CL7010)
  classification of cell line as Low(1), Medium(2) or High(3) sensitivity to compound: 2
[1]; Leukemia SR CL7019
  classification of cell line as Low(1), Medium(2) or High(3) sensitivity to compound: 3
[1]; Melanoma LOX IMVI CL10001
  classification of cell line as Low(1), Medium(2) or High(3) sensitivity to compound: 2
[1]; Melanoma M14 (CL10014)
  classification of cell line as Low(1), Medium(2) or High(3) sensitivity to compound: 2
[1]; Melanoma MALME-3M CL10002
  classification of cell line as Low(1), Medium(2) or High(3) sensitivity to compound: 2
[1]; cell line NSCLC NCI-H23(I), CL1001
  sensitivity class NSCLC NCI-H23(I) CL1001: 2
[1]; cell line NSCLC NCI-H332M, CL1017
  sensitivity class NSCLC NCI-H332M CL1017: 2
[1]; cell line NSCLC NCI-H460, CL1021
  sensitivity class NSCLC NCI-H460 CL1021: 2
[1]; cell line NSCLC NCI-H522, CL1003
  sensitivity class NSCLC NCI-H522 CL1003: 3
[1]; cell line Ovarian IGROV1, CL6010
  sensitivity class Ovarian IGROV1 CL6010: 2
[1]; cell line Ovarian OVCAR-3, CL6001
  sensitivity class Ovarian OVCAR-3 CL6001: 2
[1]; cell line Ovarian OVCAR-4, CL6002
  sensitivity class Ovarian OVCAR-4 CL6002: 2
[1]; cell line Ovarian OVCAR-5, CL6003
  sensitivity class Ovarian OVCAR-5 CL6003: 1
[1]; cell line Ovarian OVCAR-8, CL6005
  sensitivity class Ovarian OVCAR-8 CL6005: 2
[1]; cell line Ovarian SK-OV-3, CL6011
  sensitivity class Ovarian SK-OV-3 CL6011: 2
[1]; cell line Prostate DU-145, CL11003
  sensitivity class Prostate DU-145 CL11003: 3
[2]; Colon SW-620 (CL4009)
  -Log (GI50): 3.4
[2]; Leukemia CCRF-CEM(I) (CL7003)
  -Log (GI50): 3.4
[2]; Leukemia HL-60(I) (CL7008)
  -Log (GI50): 3.4
[2]; Leukemia K562(I) CL7005
  -Log (GI50): 3.3
[2]; Leukemia MOLT-4 (CL7006)
  -Log (GI50): 3.4
[2]; Leukemia RPMI-8226(I) (CL7010)
  -Log (GI50): 3.3
[2]; Leukemia SR CL7019
  -Log (GI50): 3.4
[2]; Melanoma LOX IMVI CL10001
  -Log (GI50): 3.3
[2]; Melanoma M14 (CL10014)
  -Log (GI50): 3.4
[2]; Melanoma MALME-3M CL10002
  -Log (GI50): 3.3
[2]
  -Log (GI50): 3.5
